Results reported in the supplement of paper PMC10307832.

Legend:
Experiment in all cases: relative viability (nuclei count vs DMSO), 5 days (fraction); higher = more cells survive
NCI-H1944 = system: NCI-H1944
In short: (§1)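 Relative viability is defined as nuclei in treated wells over nuclei in vehicle wells. Duplicate plates were run and medians reported. Lung cancer cell lines in 1536-well plates were dosed by pin tool one day after seeding, with one drug or with a fixed anchor-drug dose plus five library-drug doses (not always all listed) in √10 steps, and nuclei were counted after 5 days.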

SK-MES-1 = system: SK-MES-1
In short: as §1

NCI-H1734 = system: NCI-H1734
In short: as §1

NCI-H358 = system: NCI-H358
In short: as §1

EMC-BAC-2 = system: EMC-BAC-2
In short: as §1

NCI-H2087 = system: NCI-H2087
In short: as §1

NCI-H1792 = system: NCI-H1792
In short: as §1

LK-2 = system: LK-2
In short: as §1

HCC-78 = system: HCC-78
In short: as §1

ChaGo-K-1 = system: ChaGo-K-1
In short: as §1

EPLC-272H = system: EPLC-272H
In short: as §1

SW 1573 = system: SW 1573
In short: as §1

LU99A = system: LU99A
In short: as §1

HCC-827 = system: HCC-827
In short: as §1

COR-L 105 = system: COR-L 105
In short: as §1

LCLC-97TM1 = system: LCLC-97TM1
In short: as §1

LOU-NH91 = system: LOU-NH91
In short: as §1

NCI-H727 = system: NCI-H727
In short: as §1

NCI-H2126 = system: NCI-H2126
In short: as §1

NCI-H1650 = system: NCI-H1650
In short: as §1

BEN = system: BEN
In short: as §1

EKVX = system: EKVX
In short: as §1

RERF-LC-KJ = system: RERF-LC-KJ
In short: as §1

SMILES: O=C(O)CCCCC(CCSCc1ccccc1)SCc1ccccc1 (stereo not drawn) [CPI-613] + N=C(N)NC(=N)NCCc1ccccc1 [Phenformin] (partner 250 µM)
- relative viability (NCI-H1944; first compound 5 µM): 0.194
- relative viability (NCI-H1944; first compound 15.81 µM): 0.185
- relative viability (NCI-H1944; first compound 50 µM): 0.187
- relative viability (NCI-H1944; first compound 158.11 µM): 0.14
- relative viability (NCI-H1944; first compound 500 µM): 0.0441
- relative viability (SK-MES-1; first compound 5 µM): 0.642
- relative viability (SK-MES-1; first compound 15.81 µM): 0.623
- relative viability (SK-MES-1; first compound 50 µM): 0.599
- relative viability (SK-MES-1; first compound 158.11 µM): 0.147
- relative viability (SK-MES-1; first compound 500 µM): 0.0887
- relative viability (NCI-H1734; first compound 5 µM): 0.389
- relative viability (NCI-H1734; first compound 15.81 µM): 0.322
- relative viability (NCI-H1734; first compound 50 µM): 0.348
- relative viability (NCI-H1734; first compound 158.11 µM): 0.219
- relative viability (NCI-H1734; first compound 500 µM): 0.0834
- relative viability (NCI-H358; first compound 15.81 µM): 0.297
- relative viability (NCI-H358; first compound 50 µM): 0.31
- relative viability (NCI-H358; first compound 158.11 µM): 0.172
- relative viability (NCI-H358; first compound 500 µM): 0.017
- relative viability (EMC-BAC-2; first compound 5 µM): 0.531
- relative viability (EMC-BAC-2; first compound 15.81 µM): 0.517
- relative viability (EMC-BAC-2; first compound 50 µM): 0.502
- relative viability (EMC-BAC-2; first compound 158.11 µM): 0.226
- relative viability (EMC-BAC-2; first compound 500 µM): 0.0232
- relative viability (NCI-H2087; first compound 5 µM): 0.387
- relative viability (NCI-H2087; first compound 15.81 µM): 0.438
- relative viability (NCI-H2087; first compound 50 µM): 0.379
- relative viability (NCI-H2087; first compound 158.11 µM): 0.129
- relative viability (NCI-H2087; first compound 500 µM): 0.0066
- relative viability (NCI-H1792; first compound 5 µM): 0.332
- relative viability (NCI-H1792; first compound 50 µM): 0.236
- relative viability (NCI-H1792; first compound 158.11 µM): 0.205
- relative viability (NCI-H1792; first compound 500 µM): 0.0809
- relative viability (LK-2; first compound 5 µM): 0.379
- relative viability (LK-2; first compound 15.81 µM): 0.32
- relative viability (LK-2; first compound 50 µM): 0.517
- relative viability (LK-2; first compound 158.11 µM): 0.346
- relative viability (LK-2; first compound 500 µM): 0.0954
- relative viability (HCC-78; first compound 5 µM): 0.712
- relative viability (HCC-78; first compound 15.81 µM): 0.647
- relative viability (HCC-78; first compound 50 µM): 0.787
- relative viability (HCC-78; first compound 158.11 µM): 0.591
- relative viability (HCC-78; first compound 500 µM): 0.651
- relative viability (ChaGo-K-1; first compound 5 µM): 0.47
- relative viability (ChaGo-K-1; first compound 15.81 µM): 0.454
- relative viability (ChaGo-K-1; first compound 50 µM): 0.491
- relative viability (ChaGo-K-1; first compound 158.11 µM): 0.331
- relative viability (ChaGo-K-1; first compound 500 µM): 0.124
- relative viability (EPLC-272H; first compound 5 µM): 0.286
- relative viability (EPLC-272H; first compound 15.81 µM): 0.26
- relative viability (EPLC-272H; first compound 50 µM): 0.309
- relative viability (EPLC-272H; first compound 158.11 µM): 0.279
- relative viability (EPLC-272H; first compound 500 µM): 0.0144
- relative viability (SW 1573; first compound 5 µM): 0.347
- relative viability (SW 1573; first compound 15.81 µM): 0.357
- relative viability (SW 1573; first compound 50 µM): 0.304
- relative viability (SW 1573; first compound 158.11 µM): 0.0746
- relative viability (SW 1573; first compound 500 µM): 0.0663
- relative viability (LU99A; first compound 5 µM): 0.801
- relative viability (LU99A; first compound 15.81 µM): 0.793
- relative viability (LU99A; first compound 50 µM): 0.823
- relative viability (LU99A; first compound 158.11 µM): 0.733
- relative viability (LU99A; first compound 500 µM): 0.0986
- relative viability (HCC-827; first compound 5 µM): 0.361
- relative viability (HCC-827; first compound 15.81 µM): 0.374
- relative viability (HCC-827; first compound 50 µM): 0.41
- relative viability (HCC-827; first compound 158.11 µM): 0.318
- relative viability (HCC-827; first compound 500 µM): 0.185
- relative viability (COR-L 105; first compound 5 µM): 0.428
- relative viability (COR-L 105; first compound 15.81 µM): 0.405
- relative viability (COR-L 105; first compound 50 µM): 0.443
- relative viability (COR-L 105; first compound 158.11 µM): 0.279
- relative viability (COR-L 105; first compound 500 µM): 0.112
- relative viability (LCLC-97TM1; first compound 5 µM): 0.446
- relative viability (LCLC-97TM1; first compound 15.81 µM): 0.325
- relative viability (LCLC-97TM1; first compound 50 µM): 0.405
- relative viability (LCLC-97TM1; first compound 158.11 µM): 0.371
- relative viability (LCLC-97TM1; first compound 500 µM): 0.0437
- relative viability (LOU-NH91; first compound 5 µM): 0.784
- relative viability (LOU-NH91; first compound 15.81 µM): 0.591
- relative viability (LOU-NH91; first compound 50 µM): 0.652
- relative viability (LOU-NH91; first compound 158.11 µM): 0.504
- relative viability (LOU-NH91; first compound 500 µM): 0.526
- relative viability (NCI-H727; first compound 5 µM): 0.548
- relative viability (NCI-H727; first compound 15.81 µM): 0.693
- relative viability (NCI-H727; first compound 50 µM): 0.62
- relative viability (NCI-H727; first compound 158.11 µM): 0.353
- relative viability (NCI-H727; first compound 500 µM): 0.0983
- relative viability (NCI-H2126; first compound 5 µM): 0.535
- relative viability (NCI-H2126; first compound 15.81 µM): 0.524
- relative viability (NCI-H2126; first compound 50 µM): 0.585
- relative viability (NCI-H2126; first compound 158.11 µM): 0.368
- relative viability (NCI-H2126; first compound 500 µM): 0.0437
- relative viability (NCI-H1650; first compound 5 µM): 0.403
- relative viability (NCI-H1650; first compound 15.81 µM): 0.408
- relative viability (NCI-H1650; first compound 50 µM): 0.366
- relative viability (NCI-H1650; first compound 158.11 µM): 0.136
- relative viability (NCI-H1650; first compound 500 µM): 0.0086
- relative viability (BEN; first compound 5 µM): 0.242
- relative viability (BEN; first compound 15.81 µM): 0.251
- relative viability (BEN; first compound 50 µM): 0.255
- relative viability (BEN; first compound 158.11 µM): 0.25
- relative viability (BEN; first compound 500 µM): 0.215
- relative viability (EKVX; first compound 5 µM): 0.247
- relative viability (EKVX; first compound 15.81 µM): 0.223
- relative viability (EKVX; first compound 50 µM): 0.212
- relative viability (EKVX; first compound 158.11 µM): 0.164
- relative viability (EKVX; first compound 500 µM): 0.213
- relative viability (RERF-LC-KJ; first compound 5 µM): 0.42
- relative viability (RERF-LC-KJ; first compound 15.81 µM): 0.409
- relative viability (RERF-LC-KJ; first compound 50 µM): 0.406
- relative viability (RERF-LC-KJ; first compound 158.11 µM): 0.134
- relative viability (RERF-LC-KJ; first compound 500 µM): 0.0945
